Results on 30 compounds are retold here after patent publication US9624170B2, “4-(piperrazin-1-yl)-pyrrolidin-2-one compounds as monoacylglycerol lipase (MAGL) inhibitors” (TAKEDA PHARMACEUTICAL COMPANY LIMITED, priority 2013, dated 2017).

The assay concerns the target T1, human MAGL (His-hMAGL) (Homo sapiens, UniProt Q99685).
T1 construct: made in house; host or cells: Escherichia coli BL21(DE3)
T1 sequence (Q99685 1-303): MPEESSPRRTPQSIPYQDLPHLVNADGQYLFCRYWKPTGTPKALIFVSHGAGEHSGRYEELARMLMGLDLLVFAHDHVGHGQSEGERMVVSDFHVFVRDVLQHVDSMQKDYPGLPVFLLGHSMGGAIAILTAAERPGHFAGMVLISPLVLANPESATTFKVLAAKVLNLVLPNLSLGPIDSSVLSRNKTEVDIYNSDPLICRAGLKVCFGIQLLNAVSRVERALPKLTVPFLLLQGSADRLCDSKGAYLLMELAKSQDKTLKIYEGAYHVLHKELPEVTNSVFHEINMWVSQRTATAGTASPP
Kind of assay: Measurement of MAGL inhibitory activity by mass spectrometry. It is filed as biochemical. The settings on record: MAGL inhibitory rate, test compound 10 μM, His-hMAGL, substrate 2-arachidonylglycerol, RapidFire-mass spectrometry. The method in brief: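 His-tagged human MAGL was reacted with 150 μM 2-arachidonylglycerol substrate (stock, added by 5 μL) for 10 min at room temperature, then stopped with formic acid. Arachidonic acid product was quantified by RapidFire–triple-quadrupole MS in negative SRM mode, corrected by arachidonic acid-d8, and converted to percent inhibition.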
In the case of `O=C(c1nccs1)N1CCN(C2CC(=O)N(c3cccc(-c4cccc5cn[nH]c45)c3)C2)CC1` (stereo not drawn) [Example 317, 1-(3-(1H-indazol-7-yl)phenyl)-4-(4-(1,3-thiazol-2-ylcarbonyl)piperazin-1-yl)pyrrolidin-2-one], the inhibition at 10 µM came to 99%.

On to `O=C(c1nccs1)N1CCN(C2CC(=O)N(c3cccc(-c4cccc5[nH]ncc45)c3)C2)CC1` (stereo not drawn) [Example 318, 1-(3-(1H-indazol-4-yl)phenyl)-4-(4-(1,3-thiazol-2-ylcarbonyl)piperazin-1-yl)pyrrolidin-2-one], for which the inhibition at 10 µM was 103%.

On to `NC(=O)Cc1cccc(-c2cccc(N3CC(N4CCN(C(=O)c5nccs5)CC4)CC3=O)c2)c1` (stereo not drawn) [Example 319, 2-(3′-(2-oxo-4-(4-(1,3-thiazol-2-ylcarbonyl)piperazin-1-yl)pyrrolidin-1-yl)biphenyl-3-yl)acetamide], for which the inhibition at 10 µM turned out to be 102%.

For the compound `O=C(c1nccs1)N1CCN(C2CC(=O)N(c3cccc(-c4cccc5cc[nH]c45)c3)C2)CC1` (stereo not drawn) [Example 320, 1-(3-(1H-indol-7-yl)phenyl)-4-(4-(1,3-thiazol-2-ylcarbonyl)piperazin-1-yl)pyrrolidin-2-one], the inhibition at 10 µM amounted to 100%.

Consider `O=C(c1cccc(-c2cccc(N3CC(N4CCN(C(=O)c5nccs5)CC4)CC3=O)c2)c1)N1CCCC1` (stereo not drawn) [Example 321, 1-(3′-(pyrrolidin-1-ylcarbonyl)biphenyl-3-yl)-4-(4-(1,3-thiazol-2-ylcarbonyl)piperazin-1-yl)pyrrolidin-2-one], for which the inhibition at 10 µM is 102%.

In the case of `Cc1cc(C#N)ccc1-c1cccc(N2CC(N3CCN(C(=O)c4nccs4)CC3)CC2=O)c1` (stereo not drawn) [Example 322, 2-methyl-3′-(2-oxo-4-(4-(1,3-thiazol-2-ylcarbonyl)piperazin-1-yl)pyrrolidin-1-yl)biphenyl-4-carbonitrile], the inhibition at 10 µM was determined as 103%.

For the compound `COc1ccsc1-c1cccc(N2CC(N3CCN(C(=O)c4nccs4)CC3)CC2=O)c1` (stereo not drawn) [Example 323, 1-(3-(3-methoxy-2-thienyl)phenyl)-4-(4-(1,3-thiazol-2-ylcarbonyl)piperazin-1-yl)pyrrolidin-2-one], the inhibition at 10 µM was 100%.

Regarding `Cc1c(-c2cccc(N3CC(N4CCN(C(=O)c5nccs5)CC4)CC3=O)c2)cnn1C` (stereo not drawn) [Example 324, 1-(3-(1,5-dimethyl-1H-pyrazol-4-yl)phenyl)-4-(4-(1,3-thiazol-2-ylcarbonyl)piperazin-1-yl)pyrrolidin-2-one], the inhibition at 10 µM is 101%.

Regarding `Cc1nn(C)cc1-c1cccc(N2CC(N3CCN(C(=O)c4nccs4)CC3)CC2=O)c1` (stereo not drawn) [Example 325, 1-(3-(1,3-dimethyl-1H-pyrazol-4-yl)phenyl)-4-(4-(1,3-thiazol-2-ylcarbonyl)piperazin-1-yl)pyrrolidin-2-one], the inhibition at 10 µM was found to be 101%.

As to `Cn1ncc2c(-c3cccc(N4CC(N5CCN(C(=O)c6nccs6)CC5)CC4=O)c3)cccc21` (stereo not drawn) [Example 326, 1-(3-(1-methyl-1H-indazol-4-yl)phenyl)-4-(4-(1,3-thiazol-2-ylcarbonyl)piperazin-1-yl)pyrrolidin-2-one], the inhibition at 10 µM came to 105%.

For the compound `O=C(c1nccs1)N1CCN(C2CC(=O)N(c3cccc(-c4c[nH]nc4C(F)(F)F)c3)C2)CC1` (stereo not drawn) [Example 327, 4-(4-(1,3-thiazol-2-ylcarbonyl)piperazin-1-yl)-1-(3-(3-(trifluoromethyl)-1H-pyrazol-4-yl)phenyl)pyrrolidin-2-one], the inhibition at 10 µM was 100%.

Regarding `O=C(c1nccs1)N1CCN(C2CC(=O)N(c3cccc(-c4coc5ccccc45)c3)C2)CC1` (stereo not drawn) [Example 328, 1-(3-(1-benzofuran-3-yl)phenyl)-4-(4-(1,3-thiazol-2-ylcarbonyl)piperazin-1-yl)pyrrolidin-2-one], the inhibition at 10 µM was determined as 102%.

Regarding `O=C(c1nccs1)N1CCN(C2CC(=O)N(c3cccc(-c4cccc5ccoc45)c3)C2)CC1` (stereo not drawn) [Example 329, 1-(3-(1-benzofuran-7-yl)phenyl)-4-(4-(1,3-thiazol-2-ylcarbonyl)piperazin-1-yl)pyrrolidin-2-one], the inhibition at 10 µM stood at 104%.

Turning to `O=C(c1nccs1)N1CCN(C2CC(=O)N(c3cccc(-c4c(F)c(F)c(F)c(F)c4F)c3)C2)CC1` (stereo not drawn) [Example 330, 1-(2′,3′,4′,5′,6′-pentafluorobiphenyl-3-yl)-4-(4-(1,3-thiazol-2-ylcarbonyl)piperazin-1-yl)pyrrolidin-2-one], the inhibition at 10 µM came to 101%.

Turning to `O=C(c1nccs1)N1CCN(C2CC(=O)N(c3cccc(-c4cnc5ccccn45)c3)C2)CC1` (stereo not drawn) [Example 331, 1-(3-(imidazo[1,2-a]pyridin-3-yl)phenyl)-4-(4-(1,3-thiazol-2-ylcarbonyl)piperazin-1-yl)pyrrolidin-2-one], the inhibition at 10 µM amounted to 101%.

For the compound `O=C(c1nccs1)N1CCN(C2CC(=O)N(c3cccc(-c4n[nH]c5ccccc45)c3)C2)CC1` (stereo not drawn) [Example 332, 1-(3-(1H-indazol-3-yl)phenyl)-4-(4-(1,3-thiazol-2-ylcarbonyl)piperazin-1-yl)pyrrolidin-2-one], the inhibition at 10 µM was 100%.

With `Cn1ccnc1-c1cccc(N2CC(N3CCN(C(=O)c4nccs4)CC3)CC2=O)c1` (stereo not drawn) [Example 333, 1-(3-(1-methyl-1H-imidazol-2-yl)phenyl)-4-(4-(1,3-thiazol-2-ylcarbonyl)piperazin-1-yl)pyrrolidin-2-one], the inhibition at 10 µM is 83%.

For `O=C(c1nccs1)N1CCN(C2CC(=O)N(c3cccc(-c4nsc5ccccc45)c3)C2)CC1` (stereo not drawn) [Example 334, 1-(3-(1,2-benzothiazol-3-yl)phenyl)-4-(4-(1,3-thiazol-2-ylcarbonyl)piperazin-1-yl)pyrrolidin-2-one], the inhibition at 10 µM came to 103%.

In the case of `Cc1nc2ccccn2c1-c1cccc(N2CC(N3CCN(C(=O)c4nccs4)CC3)CC2=O)c1` (stereo not drawn) [Example 335, 1-(3-(2-methylimidazo[1,2-a]pyridin-3-yl)phenyl)-4-(4-(1,3-thiazol-2-ylcarbonyl)piperazin-1-yl)pyrrolidin-2-one], the inhibition at 10 µM was 101%.

For `N#Cc1cccc(F)c1-c1cccc(N2CC(N3CCN(C(=O)c4nccs4)CC3)CC2=O)c1` (stereo not drawn) [Example 336, 6-fluoro-3′-(2-oxo-4-(4-(1,3-thiazol-2-ylcarbonyl)piperazin-1-yl)pyrrolidin-1-yl)biphenyl-2-carbonitrile], the inhibition at 10 µM was found to be 100%.

Consider `O=C(c1nccs1)N1CCN(C2CC(=O)N(c3cccc(-c4c[nH]c5ncccc45)c3)C2)CC1` (stereo not drawn) [Example 337, 1-(3-(1H-pyrrolo[2,3-b]pyridin-3-yl)phenyl)-4-(4-(1,3-thiazol-2-ylcarbonyl)piperazin-1-yl)pyrrolidin-2-one], for which the inhibition at 10 µM is 99%.

As for `O=C(c1nccs1)N1CCN(C2CC(=O)N(c3cccc(-c4cccc5ccnn45)c3)C2)CC1` (stereo not drawn) [Example 338, 1-(3-(pyrazolo[1,5-a]pyridin-7-yl)phenyl)-4-(4-(1,3-thiazol-2-ylcarbonyl)piperazin-1-yl)pyrrolidin-2-one], the inhibition at 10 µM was 98%.

`COc1nccc(C)c1-c1cccc(N2CC(N3CCN(C(=O)c4nccs4)CC3)CC2=O)c1` (stereo not drawn) [Example 339, 1-(3-(2-methoxy-4-methylpyridin-3-yl)phenyl)-4-(4-(1,3-thiazol-2-ylcarbonyl)piperazin-1-yl)pyrrolidin-2-one]: the inhibition at 10 µM is 100%.

As to `O=C(c1nccs1)N1CCN(C2CC(=O)N(c3cccc(-c4cccc5nccn45)c3)C2)CC1` (stereo not drawn) [Example 340, 1-(3-(imidazo[1,2-a]pyridin-5-yl)phenyl)-4-(4-(1,3-thiazol-2-ylcarbonyl)piperazin-1-yl)pyrrolidin-2-one], the inhibition at 10 µM worked out at 99%.

As to `O=C(c1nccs1)N1CCN(C2CC(=O)N(c3cccc(-c4ccsc4C(F)(F)F)c3)C2)CC1` (stereo not drawn) [Example 341, 4-(4-(1,3-thiazol-2-ylcarbonyl)piperazin-1-yl)-1-(3-(2-(trifluoromethyl)-3-thienyl)phenyl)pyrrolidin-2-one], the inhibition at 10 µM was found to be 101%.

Consider `O=C(c1nccs1)N1CCN(C2CC(=O)N(c3cccc(-c4cccn5ccnc45)c3)C2)CC1` (stereo not drawn) [Example 342, 1-(3-(imidazo[1,2-a]pyridin-8-yl)phenyl)-4-(4-(1,3-thiazol-2-ylcarbonyl)piperazin-1-yl)pyrrolidin-2-one], for which the inhibition at 10 µM came to 100%.

In the case of `COc1nccc2[nH]cc(-c3cccc(N4CC(N5CCN(C(=O)c6nccs6)CC5)CC4=O)c3)c12` (stereo not drawn) [Example 343, 1-(3-(4-methoxy-1H-pyrrolo[3,2-c]pyridin-3-yl)phenyl)-4-(4-(1,3-thiazol-2-ylcarbonyl)piperazin-1-yl)pyrrolidin-2-one], the inhibition at 10 µM was found to be 101%.

Turning to `O=C(c1nccs1)N1CCN(C2CC(=O)N(c3cccc(-c4c(F)cccc4Cl)c3)C2)CC1` (stereo not drawn) [Example 344, 1-(2′-chloro-6′-fluorobiphenyl-3-yl)-4-(4-(1,3-thiazol-2-ylcarbonyl)piperazin-1-yl)pyrrolidin-2-one], the inhibition at 10 µM came to 98%.

Regarding `Cc1cn2c(-c3cccc(N4CC(N5CCN(C(=O)c6nccs6)CC5)CC4=O)c3)cccc2n1` (stereo not drawn) [Example 345, 1-(3-(2-methylimidazo[1,2-a]pyridin-5-yl)phenyl)-4-(4-(1,3-thiazol-2-ylcarbonyl)piperazin-1-yl)pyrrolidin-2-one], the inhibition at 10 µM came to 97%.

In the case of `O=C(c1nccs1)N1CCN(C2CC(=O)N(c3cccc(-c4ccnc5sccc45)c3)C2)CC1` (stereo not drawn) [Example 346, 4-(4-(1,3-thiazol-2-ylcarbonyl)piperazin-1-yl)-1-(3-(thieno[2,3-b]pyridin-4-yl)phenyl)pyrrolidin-2-one], the inhibition at 10 µM was 99%.
